The molecules below were run against S. aureus GyrB ATPase (Staphylococcus aureus, UniProt P0A0K8) (assay: biochemical). Conditions: compound at 1 μM; one value per test if tested more than once; 1 µM.
Outline: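 IC50 values derive from 10-point titrations of compound (in DMSO). Phosphate formed from 250 μM ATP was quantified by acidic molybdate/malachite green after quenching.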

Sequence of S. aureus GyrB ATPase (P0A0K8 whole entry): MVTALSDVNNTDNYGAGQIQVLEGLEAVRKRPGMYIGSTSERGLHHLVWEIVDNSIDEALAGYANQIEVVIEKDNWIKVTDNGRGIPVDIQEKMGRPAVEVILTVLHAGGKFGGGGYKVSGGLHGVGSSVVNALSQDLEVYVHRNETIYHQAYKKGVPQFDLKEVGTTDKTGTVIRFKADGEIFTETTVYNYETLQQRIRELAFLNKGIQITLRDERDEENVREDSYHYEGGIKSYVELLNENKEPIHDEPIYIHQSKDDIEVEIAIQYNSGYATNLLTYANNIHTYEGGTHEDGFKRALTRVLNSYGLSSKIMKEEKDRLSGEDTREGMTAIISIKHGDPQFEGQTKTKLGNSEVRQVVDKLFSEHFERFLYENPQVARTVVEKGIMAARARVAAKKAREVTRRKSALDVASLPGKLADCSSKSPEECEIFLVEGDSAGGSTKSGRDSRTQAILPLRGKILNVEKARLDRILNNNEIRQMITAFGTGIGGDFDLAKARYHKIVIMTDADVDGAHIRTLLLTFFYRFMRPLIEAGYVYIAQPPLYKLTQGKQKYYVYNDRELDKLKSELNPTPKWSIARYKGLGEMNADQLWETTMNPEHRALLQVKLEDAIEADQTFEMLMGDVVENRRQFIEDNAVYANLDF
Sequence of S. aureus GyrB ATPase (P0AES4 whole entry, further chain): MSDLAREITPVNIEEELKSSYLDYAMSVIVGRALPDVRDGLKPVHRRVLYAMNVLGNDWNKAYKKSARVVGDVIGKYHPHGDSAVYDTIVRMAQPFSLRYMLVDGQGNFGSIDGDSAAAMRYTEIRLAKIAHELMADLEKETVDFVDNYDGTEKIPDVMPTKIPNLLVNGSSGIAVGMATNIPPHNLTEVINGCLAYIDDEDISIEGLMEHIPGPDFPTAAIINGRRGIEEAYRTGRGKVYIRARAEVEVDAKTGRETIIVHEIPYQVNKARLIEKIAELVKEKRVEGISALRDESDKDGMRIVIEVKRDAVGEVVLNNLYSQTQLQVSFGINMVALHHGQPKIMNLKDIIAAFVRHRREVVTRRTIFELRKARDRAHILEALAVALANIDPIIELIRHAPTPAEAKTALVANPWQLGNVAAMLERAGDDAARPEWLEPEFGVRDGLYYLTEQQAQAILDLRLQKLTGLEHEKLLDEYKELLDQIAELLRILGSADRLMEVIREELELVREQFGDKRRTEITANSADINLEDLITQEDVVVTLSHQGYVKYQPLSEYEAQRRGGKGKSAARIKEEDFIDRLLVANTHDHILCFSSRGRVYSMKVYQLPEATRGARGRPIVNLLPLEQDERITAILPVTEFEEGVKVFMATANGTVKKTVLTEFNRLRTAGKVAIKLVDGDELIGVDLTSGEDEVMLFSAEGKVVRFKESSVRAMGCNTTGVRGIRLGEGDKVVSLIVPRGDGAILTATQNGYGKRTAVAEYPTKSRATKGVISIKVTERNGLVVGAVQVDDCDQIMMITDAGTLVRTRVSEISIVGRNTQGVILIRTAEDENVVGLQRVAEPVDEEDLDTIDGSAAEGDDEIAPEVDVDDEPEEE

SMILES | % Inhibition of S. aureus GyrB ATPase
CCNC(=O)Nc1cc(-c2nc(C(F)(F)F)cs2)c(-c2ccc3c(c2)c(=O)c(C(=O)O)cn3CCOC)cn1 [Example 1, 6-(6-(3-Ethylureido)-4-(4-(trifluoromethyl)thiazol-2-yl)pyridin-3-yl)-1-(2-methoxyethyl)-4-oxo-1,4-dihydroquinoline-3-carboxylic acid] | 104%

Same assay, conditions: compound at 1 μM; one value per test if tested more than once; read-out: % Inhibition of S. aureus GyrB ATPase

SMILES | inhibition at 1 µM
CCNC(=O)Nc1cc(-c2nc(C(F)(F)F)cs2)c(-c2ccc3c(c2)c(=O)c(C(=O)O)cn3[C@H](CO)Cc2ccccc2)cn1 [Example 74, (S)-6-(6-(3-ethylureido)-4-(4-(trifluoromethyl)thiazol-2-yl)pyridin-3-yl)-1-(1-hydroxy-3-phenylpropan-2-yl)-4-oxo-1,4-dihydroquinoline-3-carboxylic acid] | 103%
CCNC(=O)Nc1cc(-c2nc(C(F)(F)F)cs2)c(-c2ccc3c(c2)c(=O)c(C(=O)O)cn3[C@@H](CO)Cc2ccc(O)cc2)cn1 [Example 77, (R)-6-(6-(3-ethylureido)-4-(4-(trifluoromethyl)thiazol-2-yl)pyridin-3-yl)-1-(1-hydroxy-3-(4-hydroxyphenyl)propan-2-yl)-4-oxo-1,4-dihydroquinoline-3-carboxylic acid] | 110%
CCNC(=O)Nc1cc(-c2nc(C(F)(F)F)cs2)c(-c2cc3c4c(c2)c(=O)c(C(=O)O)cn4CCO3)cn1 [Example 11, 9-(6-(3-ethylureido)-4-(4-trifluoromethylthiazol-2-yl)pyridin-3-yl)-7-oxo-3,7-dihydro-2H-[1,4]oxazino[2,3,4-ij]quinoline-6-carboxylic acid] | 102%
CCNC(=O)Nc1cc(-c2nc(C(F)(F)F)cs2)c(-c2ccc3c(=O)c(C(=O)NCCN4CCN(C)CC4)cn(CCC(C)C)c3c2)cn1 [Example 340, 7-{6-[(ethylcarbamoyl)amino]-4-[4-(trifluoromethyl)-1,3-thiazol-2-yl]pyridin-3-yl}-1-(3-methylbutyl)-N-[2-(4-methylpiperazin-1-yl)ethyl]-4-oxo-1,4-dihydroquinoline-3-carboxamide] | 93%
CCNC(=O)Nc1cc(-c2nc(C(F)(F)F)cs2)c(-c2ccc3c(c2)c(=O)c(C(=O)O)cn3C2CN(C)C2)cn1 [Example 24, 6-(6-(3-ethylureido)-4-(4-(trifluoromethyl)thiazol-2-yl)pyridin-3-yl)-1-(1-methylazetidin-3-yl)-4-oxo-1,4-dihydroquinoline-3-carboxylic acid] | 99%
CCNC(=O)Nc1cc(-c2nc(C(F)(F)F)cs2)c(-c2ccc3c(=O)c(C(=O)NCCCO)cn(Cc4cccnc4)c3c2)cn1 [Example 359, 7-{6-[(ethylcarbamoyl)amino]-4-[4-(trifluoromethyl)-1,3-thiazol-2-yl]pyridin-3-yl}-N-(3-hydroxypropyl)-4-oxo-1-(pyridin-3-ylmethyl)-1,4-dihydroquinoline-3-carboxamide] | 92%
CCNC(=O)Nc1cc(-c2nc(C(F)(F)F)cs2)c(-c2ccc3c(c2)c(=O)c(C(=O)O)cn3C(CO)C2CCOCC2)cn1 (centres unmarked) [Example 80, 6-(6-(3-ethylureido)-4-(4-(trifluoromethyl)thiazol-2-yl)pyridin-3-yl)-1-(-hydroxy-1-(tetrahydro-H-pyran-4-yl)ethyl)-4-oxo-1,4-dihydroquinoline-3-carboxylic acid] | 96%
CCNC(=O)Nc1cc(-c2nc(C(F)(F)F)cs2)c(-c2ccc3c(c2)c(=O)c(C(=O)N2CCNCC2)cn3C(COC)COC)cn1 [Example 140, 1-{5-[1-(1,3-dimethoxypropan-2-yl)-4-oxo-3-(piperazin-1-ylcarbonyl)-1,4-dihydroquinolin-6-yl]-4-[4-(trifluoromethyl)-1,3-thiazol-2-yl]pyridin-2-yl}-3-ethylurea] | 95%
CCNC(=O)Nc1cc(-c2nc(C(F)(F)F)cs2)c(-c2ccc3c(c2)c(=O)c(C(=O)O)cn3[C@@H]2CCCN(CC(C)(C)CN3CCOCC3)C2)cn1 [Example 290, (R)-1-(1-(2,2-dimethyl-3-morpholinopropyl)piperidin-3-yl)-6-(6-(3-ethylureido)-4-(4-(trifluoromethyl)thiazol-2-yl)pyridin-3-yl)-4-oxo-1,4-dihydroquinoline-3-carboxylic acid] | 100%
CCNC(=O)Nc1cc(-c2nc(-c3ccccc3)cs2)c(-c2ccc3c(c2)c(=O)c(C(=O)O)cn3CCOC)cn1 [Example 2, 6-(6-(3-ethylureido)-4-(4-phenylthiazol-2-yl)pyridin-3-yl)-1-(2-methoxyethyl)-4-oxo-1,4-dihydroquinoline-3-carboxylic acid] | 100%
CCNC(=O)Nc1cc(-c2nc(-c3ccccc3)cs2)c(-c2cc3c4c(c2)c(=O)c(C(=O)O)cn4CCO3)cn1 [Example 17, 9-(6-(3-ethylureido)-4-(4-phenylthiazol-2-yl)pyridin-3-yl)-7-oxo-3,7-dihydro-2H-[1,4]oxazino[2,3,4-ij]quinoline-6-carboxylic acid] | 103%
CCNC(=O)Nc1cc(-c2nc(C(F)(F)F)cs2)c(-c2ccc3c(c2)c(=O)c(C(=O)O)cn3C(C)C)cn1 [Example 21, 6-(6-(3-Ethylureido)-4-(4-(trifluoromethyl)thiazol-2-yl)pyridin-3-yl)-1-isopropyl-4-oxo-1,4-dihydroquinoline-3-carboxylic acid] | 98%
CCNC(=O)Nc1cc(-c2nc(C(F)(F)F)cs2)c(-c2ccc3c(c2)c(=O)c(C(=O)NCCOC)cn3C2CC2)cn1 [Example 325, 1-Cyclopropyl-6-(6-(3-ethylureido)-4-(4-(trifluoromethyl)thiazol-2-yl)pyridin-3-yl)-N-(2-methoxyethyl)-4-oxo-1,4-dihydroquinoline-3-carboxamide] | 96%
CCNC(=O)Nc1cc(-c2nc(C(F)(F)F)cs2)c(-c2ccc3c(c2)c(=O)c(C(=O)O)cn3[C@H](CC)CO)cn1 [Example 79, (R)-6-(6-(3-ethylureido)-4-(4-(trifluoromethyl)thiazol-2-yl)pyridin-3-yl)-1-(1-hydroxybutan-2-yl)-4-oxo-1,4-dihydroquinoline-3-carboxylic acid] | 97%
CCNC(=O)Nc1cc(-c2nc(C(F)(F)F)cs2)c(-c2ccc3c(c2)c(=O)c(C(=O)O)cn3CCO)cn1 [Example 19, 6-(6-(3-Ethylureido)-4-(4-(trifluoromethyl)thiazol-2-yl)pyridin-3-yl)-1-(2-hydroxyethyl)-4-oxo-1,4-dihydroquinoline-3-carboxylic acid] | 98%
CCNC(=O)Nc1cc(-c2nc(C(F)(F)F)cs2)c(-c2ccc3c(c2)c(=O)c(C(=O)O)cn3[C@@H]2CCCN(CCN3CCOCC3)C2)cn1 [Example 285, (R)-ethyl 6-(6-(3-ethylureido)-4-(4-(trifluoromethyl)thiazol-2-yl)pyridin-3-yl)-1-(1-(2-morpholinoethyl)piperidin-3-yl)-4-oxo-1,4-dihydroquinoline-3-carboxylic acid] | 105%
CCNC(=O)Nc1cc(-c2nc(C(F)(F)F)cs2)c(-c2ccc3c(c2)c(=O)c(C(=O)NC(COC)COC)cn3C2CC2)cn1 [Example 327, 1-Cyclopropyl-N-(1,3-dimethoxy-propan-2-yl)-6-(6-(3-ethylureido)-4-(4-(trifluoromethyl)thiazol-2-yl)pyridin-3-yl)-4-oxo-1,4-dihydroquinoline-3-carboxamide] | 100%
CC(C)NC(=O)Nc1cc(-c2nc(C(F)(F)F)cs2)c(-c2ccc3c(c2)c(=O)c(C(=O)O)cn3CCN2CCOCC2)cn1 [Example 195, 6-(6-(3-isopropylureido)-4-(4-(trifluoromethyl)thiazol-2-yl)pyridin-3-yl)-1-(2-morpholinoethyl)-4-oxo-1,4-dihydroquinoline-3-carboxylic acid] | 98%
CCNC(=O)Nc1cc(-c2nc(-c3ccccc3)cs2)c(-c2cc3c4c(c2)c(=O)c(C(=O)NC)cn4CCO3)cn1 [Example 41, 9-(6-(3-ethylureido)-4-(4-phenylthiazol-2-yl)pyridin-3-yl)-N-methyl-7-oxo-3,7-dihydro-2H-[1,4]oxazino[2,3,4-ij]quinoline-6-carboxamide] | 105%
CCNC(=O)Nc1cc(-c2nc(C(F)(F)F)cs2)c(-c2ccc3c(=O)c(C(=O)NCCN4CCN(C)CC4)cn(CC(C)C)c3c2)cn1 [Example 346, 7-{6-[(ethylcarbamoyl)amino]-4-[4-(trifluoromethyl)-1,3-thiazol-2-yl]pyridin-3-yl}-N-[2-(4-methylpiperazin-1-yl)ethyl]-1-(2-methylpropyl)-4-oxo-1,4-dihydroquinoline-3-carboxamide] | 87%
CCNC(=O)Nc1cc(-c2nc(C(F)(F)F)cs2)c(-c2ccc3c(c2)c(=O)c(C(=O)O)cn3[C@@H]2CCCC[C@@H]2O)cn1 (relative stereo) [Example 276, 6-(6-(3-ethylureido)-4-(4-(trifluoromethyl)thiazol-2-yl)pyridin-3-yl)-1-(cis-2-hydroxycyclohexyl)-4-oxo-1,4-dihydroquinoline-3-carboxylic acid] | 106%
CCNC(=O)Nc1cc(-c2nc(-c3ccccc3)cs2)c(-c2ccc3c(=O)c(C(=O)O)cn(CC)c3c2)cn1 [Example 15, 1-ethyl-7-(6-(3-ethylureido)-4-(4-phenylthiazol-2-yl)pyridin-3-yl)-4-oxo-1,4-dihydroquinoline-3-carboxylic acid] | 101%
CCNC(=O)Nc1cc(-c2nc(C(F)(F)F)cs2)c(-c2ccc3c(c2)c(=O)c(C(=O)N2CCN(C(C)=O)CC2)cn3C2CN(C)C2)cn1 [Example 169, 1-(5-(3-(4-acetylpiperazine-1-carbonyl)-1-(1-methylazetidin-3-yl)-4-oxo-1,4-dihydroquinolin-6-yl)-4-(4-(trifluoromethyl)thiazol-2-yl)pyridin-2-yl)-3-ethylurea] | 105%
CCNC(=O)Nc1cc(-c2nc(C(F)(F)F)cs2)c(-c2ccc3c(c2)c(=O)c(C(=O)O)cn3CCOC)cn1 [Example 1, 6-(6-(3-Ethylureido)-4-(4-(trifluoromethyl)thiazol-2-yl)pyridin-3-yl)-1-(2-methoxyethyl)-4-oxo-1,4-dihydroquinoline-3-carboxylic acid] | 100%
CCNC(=O)Nc1cc(-c2nc(C(F)(F)F)cs2)c(-c2ccc3c(c2)c(=O)c(C(=O)O)cn3[C@H]2CCCN(CCS(C)(=O)=O)C2)cn1 [Example 280, (S)-ethyl 6-(6-(3-ethylureido)-4-(4-(trifluoromethyl)thiazol-2-yl)pyridin-3-yl)-1-(1-(2-(methylsulfonyl)ethyl)piperidin-3-yl)-4-oxo-1,4-dihydroquinoline-3-carboxylic acid] | 103%
